According to US4251520A, “Glucofuranose derivatives” (priority 1976, dated 1981):

Assays:
in vivo = settings: mouse, in vivo, po
[1] = test system: edema induced by carrageenan; assay: Anti-inflammatory activity, carrageenin-induced oedema; format: in vivo, rat; settings: po; 500 mg/kg p.o. rat; read-out: % inhibition of edema induced by carrageenan
Description: Beginning, therefore, with D-glucose, we have prepared 1,2:5,6-di-O-isopropylidene-α-D-glucofuranose (II): [drawing 2] as well as 1,2-O-isopropylidene-α-D-glucofuranose and 1,2-O-isopropylidene-3,5,6-tri-O-benzyl-α-D-glucofuranose (1; Glen W. L., Myers G. S., Grant G. A., J. Chem. Soc., 2568/1951; (2) Meyer A. S., Reichstein T., Helv. Chim. Acta, 29, 139/1946; (3) Huber G., Rossi A., Helv. Chim. Acta, 51, 1185/1968) and have compared these compounds with (I) for anti-inflammatory activity against carrageenin-induced oedema (500 mg/kg, p.o. in rats).

edema induced by dextran = assay: Anti-inflammatory activity, dextran-induced edema; format: in vivo, rat; settings: po; 500 mg/kg p.o. rat; read-out: % inhibition of edema induced by dextran
Description: (§1) Pharmacological tests were carried out to evaluate the acute toxicity, anti-inflammatory and capillary permeability action, antipyretic, analgesic and anti-spasmodic in vitro action.

[2] = test system: edema induced by formalin; assay: Anti-inflammatory activity, formalin-induced edema; format: in vivo, rat; settings: po; 500 mg/kg p.o. rat; read-out: % inhibition of edema induced by formalin
Description: as §1

Antipyretic activity = format: in vivo, rat; settings: for Antipyretic activity (potency in comparison with aspirin = 100): 400 mg/kg p.o. rat; for Antipyretic action (in words): rat, in vivo
Description: as §1

[3] = Analgesic activity, hot plate test; format: in vivo, mouse; settings: po; 500 mg/kg p.o. mouse; hot plate test; read-out: Analgesic activity, increase of reaction time %
Description: as §1

[4] = Analgesic activity, protection from writhing; format: in vivo, mouse; settings: po; 500 mg/kg p.o. mouse; read-out: Analgesic activity, protection from writhing %
Description: as §1

spasm by histamine = assay: Antispasmodic activity in vitro, spasm by histamine
Description: as §1

spasm by acetylcholine = assay: Antispasmodic activity in vitro, spasm by acetylcholine
Description: as §1

[5] = test system: oedema induced by carrageenin, dextran and formalin; assay: Anti-inflammatory activity tests (oedema by carrageenin, dextran and formalin); format: in vivo; settings: rat
Description: as §1

granuloma = assay: Granuloma cotton pellet test; settings: Rattus norvegicus, po, read-out: % inhibition of granuloma
Description: as §1

capillary permeability = assay: Capillary permeability test; settings: 500 mg/kg p.o. mouse
Description: as §1

SMILES | LD50 (in vivo) | inhibition in vivo at 500 mg/kg [1] | inhibition in vivo at 500 mg/kg (edema induced by dextran) | inhibition in vivo at 500 mg/kg [2] | Antipyretic activity (potency in comparison with aspirin = 100) (Antipyretic activity) | Antipyretic action (in words) (Antipyretic activity) | change in vivo at 500 mg/kg [3] | inhibition in vivo at 500 mg/kg [4] | Antispasmodic activity in vitro, ED50, inhib. of spasm by histamine (spasm by histamine) | Activity against spasms produced by acetylcholine (in words) (spasm by acetylcholine) | Antispasmodic activity in vitro, ED50, inhib. of spasm by acetylcholine (spasm by acetylcholine) | Anti-inflammatory potency compared with aspirin and phenylbutazone (in words) [5] | Inhibition of oedema induced by carrageenin, dextran and formalin, compared with (I) (in words) [5] | inhibition in vivo at 200 mg/kg (granuloma) | Capillary permeability, decrease % (capillary permeability) | Inhibition of spasms induced by histamine (in words) (spasm by histamine)
C#CCOC1C(C2COC(C)(C)O2)OC2OC(C)(C)OC21 (stereo not shown) [X] | 1500 mg/kg | 53% | 65% | 36% | 107% | retained | 0% | 20% | 50 µg/mL | moderately active | 50 µg/mL | as potent as or more potent than aspirin and phenylbutazone | clearly more active than (I) | 0% |  | 
CC1(C)OCC(C2OC3OC(C)(C)OC3C2OCCN2CCOCC2)O1 (stereo not shown) [XX] | 1500 mg/kg | 59% | 65% | 43% | 14% |  | 40% | 0% | > 100 µg/mL |  | > 100 µg/mL |  |  | 0% | 58% | 
CCOC1C(C2COC(C)(C)O2)OC2OC(C)(C)OC21 (stereo not shown) [IV] | 2000 mg/kg | 37% | 14% | 33% | 31% |  | 30% | 0% | 150 µg/mL |  | > 100 µg/mL |  |  |  | 42% | 
CC1(C)OCC(C2OC3OC(C)(C)OC3C2OCC(=O)O)O1 [XIII, 3-Carboxymethyl-1,2:5,6-di-O-isopropylidene-α-D-glucofuranose] | > 4000 mg/kg | 10% | 4% | 18% | 5% |  | 0% | 0% | > 100 µg/mL |  | > 100 µg/mL |  |  |  | 14% | 
CC(C)N(CCOC1C(C2COC(C)(C)O2)OC2OC(C)(C)OC21)C(C)C (stereo not shown) [XVII] | 1000 mg/kg | 73% | 35% | 32% | 15% |  | 0% | 40% | 70 µg/mL |  | 100 µg/mL |  |  | 0% | 32% | 
CCCN(CCC)CCOC1C(C2COC(C)(C)O2)OC2OC(C)(C)OC21 (stereo not shown) [XVI] | 750 mg/kg | 23% | 41% | 24% | 29% |  | 0% | 0% | 12 µg/mL |  | 100 µg/mL |  |  | 0% |  | inhibited spasms induced by histamine at relatively low concentrations
CN(C)CCOC1C(C2COC(C)(C)O2)OC2OC(C)(C)OC21 [XIV, 3-(2-Dimethylaminoethyl)-1,2:5,6-di-O-isopropylidene-α-D-glucofuranose] | 1500 mg/kg | 62% | 54% | 28% | 43% | retained | 10% | 20% | 100 µg/mL |  | > 100 µg/mL |  |  | 0% | 35% | 
CCCCOC1C(C2COC(C)(C)O2)OC2OC(C)(C)OC21 (stereo not shown) [VI] | 3000 mg/kg | 33% | 13% | 24% | 51% | retained | 40% | 0% | > 100 µg/mL |  | > 100 µg/mL |  |  |  | 57% | 
CCCOC1C(C2COC(C)(C)O2)OC2OC(C)(C)OC21 (stereo not shown) [V] | 1000 mg/kg | 28% | 0% | 0% | 37% |  | 10% | 20% | > 100 µg/mL |  | > 100 µg/mL |  |  |  | 53% | 
CC1(C)OCC(C2OC3OC(C)(C)OC3C2OCCN2CCCCC2)O1 (stereo not shown) [XIX] | > 1000 mg/kg | 64% | 56% | 28% | 55% | retained |  |  |  |  |  |  |  |  | 17% | 
CC1(C)OCC(C2OC3OC(C)(C)OC3C2OCCN(Cc2ccccc2)Cc2ccccc2)O1 (stereo not shown) [XXI] | > 2000 mg/kg | 29% | 17% | 19% | 25% |  | 0% | 60% |  |  |  |  |  |  |  | 
CCN(CC)CCOC1C(C2COC(C)(C)O2)OC2OC(C)(C)OC21 (stereo not shown) [XV] | 3000 mg/kg | 60% | 58% | 4% | 8% |  | 10% | 0% | 100 µg/mL |  | > 100 µg/mL |  |  | 0% | 20% | 
CC1(C)OCC(C2OC3OC(C)(C)OC3C2OCCN2CCCC2)O1 (stereo not shown) [XVIII] | 1500 mg/kg | 68% | 64% | 38% | 0% |  | 10% | 0% | 100 µg/mL |  | > 100 µg/mL |  |  | 0% | 50% | 
